Laboratory results published in patent US5491167A, “Hexahydronaphthalene ester derivatives, their preparation and their therapeutic uses” (Sankyo Company, Limited, priority 1993, dated 1996).
Counter-ions that a name gives are not always drawn.

Target: T1, HMG-CoA reductase (Rattus norvegicus, UniProt P51639)
T1 construct: an enzyme solution (rat liver microsomal fraction); from tissue; host or cells: rat liver microsomal fraction
T1 sequence (P51639 1-887): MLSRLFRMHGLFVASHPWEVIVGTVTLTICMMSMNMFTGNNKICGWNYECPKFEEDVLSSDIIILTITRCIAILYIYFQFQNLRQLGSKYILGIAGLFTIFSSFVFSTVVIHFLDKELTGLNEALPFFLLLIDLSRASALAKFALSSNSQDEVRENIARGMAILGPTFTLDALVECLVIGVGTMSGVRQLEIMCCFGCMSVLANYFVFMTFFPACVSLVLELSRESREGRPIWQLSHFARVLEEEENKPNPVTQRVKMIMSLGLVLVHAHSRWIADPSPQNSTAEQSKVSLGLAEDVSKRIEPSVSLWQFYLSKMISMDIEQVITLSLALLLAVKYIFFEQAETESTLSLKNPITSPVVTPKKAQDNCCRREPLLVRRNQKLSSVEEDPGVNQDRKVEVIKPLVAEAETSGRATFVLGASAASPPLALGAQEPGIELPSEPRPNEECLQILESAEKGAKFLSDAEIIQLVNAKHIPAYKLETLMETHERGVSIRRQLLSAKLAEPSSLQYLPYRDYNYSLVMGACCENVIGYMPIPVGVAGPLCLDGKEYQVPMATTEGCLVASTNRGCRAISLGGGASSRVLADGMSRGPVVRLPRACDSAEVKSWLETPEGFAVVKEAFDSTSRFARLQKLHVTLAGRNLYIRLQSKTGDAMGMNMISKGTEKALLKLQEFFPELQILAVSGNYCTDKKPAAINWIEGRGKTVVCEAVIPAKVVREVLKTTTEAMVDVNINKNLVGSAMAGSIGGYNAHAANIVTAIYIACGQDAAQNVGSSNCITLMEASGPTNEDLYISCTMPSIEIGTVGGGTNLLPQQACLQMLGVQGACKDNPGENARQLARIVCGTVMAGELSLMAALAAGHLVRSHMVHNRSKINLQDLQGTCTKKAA
Assay: Determination of HMG-CoA Reductase Inhibitory Activity
Format: biochemical
Settings: rat liver microsomal fraction, 0.2 mM [14C]HMG-CoA, pH7.4, 15 minutes at 37° C
Experimental: The ability of the preferred test compounds to inhibit the activity of HMG-CoA reductase was determined by the method of Koga et al. [Eur. J. Biochem. 209, 315-319 (1992)], the improved procedure of Kuroda et al. [Biochem. Biophys, Acta, 485, 70-81 (1977)] which a modification of the method of Shapiro et al. [Anal. Biochem. 31, 383-390, (1969)].
A solution of 5 μl of the preferred test compound dissolved in distilled water was added to 45 μl of a reaction mixture containing 100 mM of a potassium phosphate buffer (pH7.4), 0.2 mM of [^14 C]HMG-CoA, 10 mM of ethylenediaminetetraacetic acid disodium salt, 10 mM of dithiothreitol, 10 mM of NADPH (=reduced nicotinamide adenine dinucleotide phosphate) and an enzyme solution (rat liver microsomal fraction). The concentrations are expressed in terms of the final 50 μl of assay mixture. The resulting mixture was incubated for 15 minutes at 37° C. The reaction was then terminated by adding 10 μl of 2N aqueous hydrochloric acid, to lactonize the [^14 C]mevalonate produced. After 15 minutes incubation, 1 ml of a 1:1 by volume aqueous suspension of Biorex-5 was added and the tubes were vigorously mixed using a Vortex mixer. […] The supernatant (400 μl) was mixed with 4.5 ml of Optiflow™ in scintillation vials and the activity of the [^14 C]mevalonolactone was determined by a liquid scintillation counter.

Compound | IC50 [nM]
CCC(Oc1ccc(C)cc1)C(=O)O[C@H]1C[C@H](O)C=C2C=C[C@H](C)[C@H](CC[C@@H](O)C[C@@H](O)CC(=O)O)[C@H]21 (stereo partly drawn) [Example 3, Sodium Salt of (3R,5R)-3,5-dihydroxy-7-{(1S,2S,6S,8S,8aR)-1,2,6,7,8,8a-hexahydro-6-hydroxy-8-[(2RS)-2-(4-methylphenoxy)butyryloxy]-2-methyl-1-naphthyl}heptanoic acid] | 30.6
CCC(Oc1c(C)cccc1C)C(=O)O[C@H]1C[C@H](O)C=C2C=C[C@H](C)[C@H](CC[C@@H](O)C[C@@H](O)CC(=O)O)[C@H]21 (stereo partly drawn) [Example 6, Sodium salt of (3R,5R)-3,5-dihydroxy-7-{(1S,2S,6S,8S,8aR)-1,2,6,7,8,8a-hexahydro-6-hydroxy-8-[(2RS)-2-(2,6-dimethylphenoxy)butyryloxy]-2-methyl-1-naphthyl}heptanoicacid] | 33.5
